In patent publication US20090012103A1, “SUBSTITUTED HETEROCYCLIC COMPOUNDS” (priority 2007, published 2009):
Read-outs that look alike come from different tables or passages of the source.

Biological target: wild-type human cardiac sodium channel, hNav1.5 (Homo sapiens, UniProt Q14524)
Assay: Late INa screening assay (late sodium current, PatchXpress whole cell patch clamp)
Type: cell-based
Conditions: read-out: Late INa % blk

wild-type human cardiac sodium channel, hNav1.5, sequence (Q14524 whole entry): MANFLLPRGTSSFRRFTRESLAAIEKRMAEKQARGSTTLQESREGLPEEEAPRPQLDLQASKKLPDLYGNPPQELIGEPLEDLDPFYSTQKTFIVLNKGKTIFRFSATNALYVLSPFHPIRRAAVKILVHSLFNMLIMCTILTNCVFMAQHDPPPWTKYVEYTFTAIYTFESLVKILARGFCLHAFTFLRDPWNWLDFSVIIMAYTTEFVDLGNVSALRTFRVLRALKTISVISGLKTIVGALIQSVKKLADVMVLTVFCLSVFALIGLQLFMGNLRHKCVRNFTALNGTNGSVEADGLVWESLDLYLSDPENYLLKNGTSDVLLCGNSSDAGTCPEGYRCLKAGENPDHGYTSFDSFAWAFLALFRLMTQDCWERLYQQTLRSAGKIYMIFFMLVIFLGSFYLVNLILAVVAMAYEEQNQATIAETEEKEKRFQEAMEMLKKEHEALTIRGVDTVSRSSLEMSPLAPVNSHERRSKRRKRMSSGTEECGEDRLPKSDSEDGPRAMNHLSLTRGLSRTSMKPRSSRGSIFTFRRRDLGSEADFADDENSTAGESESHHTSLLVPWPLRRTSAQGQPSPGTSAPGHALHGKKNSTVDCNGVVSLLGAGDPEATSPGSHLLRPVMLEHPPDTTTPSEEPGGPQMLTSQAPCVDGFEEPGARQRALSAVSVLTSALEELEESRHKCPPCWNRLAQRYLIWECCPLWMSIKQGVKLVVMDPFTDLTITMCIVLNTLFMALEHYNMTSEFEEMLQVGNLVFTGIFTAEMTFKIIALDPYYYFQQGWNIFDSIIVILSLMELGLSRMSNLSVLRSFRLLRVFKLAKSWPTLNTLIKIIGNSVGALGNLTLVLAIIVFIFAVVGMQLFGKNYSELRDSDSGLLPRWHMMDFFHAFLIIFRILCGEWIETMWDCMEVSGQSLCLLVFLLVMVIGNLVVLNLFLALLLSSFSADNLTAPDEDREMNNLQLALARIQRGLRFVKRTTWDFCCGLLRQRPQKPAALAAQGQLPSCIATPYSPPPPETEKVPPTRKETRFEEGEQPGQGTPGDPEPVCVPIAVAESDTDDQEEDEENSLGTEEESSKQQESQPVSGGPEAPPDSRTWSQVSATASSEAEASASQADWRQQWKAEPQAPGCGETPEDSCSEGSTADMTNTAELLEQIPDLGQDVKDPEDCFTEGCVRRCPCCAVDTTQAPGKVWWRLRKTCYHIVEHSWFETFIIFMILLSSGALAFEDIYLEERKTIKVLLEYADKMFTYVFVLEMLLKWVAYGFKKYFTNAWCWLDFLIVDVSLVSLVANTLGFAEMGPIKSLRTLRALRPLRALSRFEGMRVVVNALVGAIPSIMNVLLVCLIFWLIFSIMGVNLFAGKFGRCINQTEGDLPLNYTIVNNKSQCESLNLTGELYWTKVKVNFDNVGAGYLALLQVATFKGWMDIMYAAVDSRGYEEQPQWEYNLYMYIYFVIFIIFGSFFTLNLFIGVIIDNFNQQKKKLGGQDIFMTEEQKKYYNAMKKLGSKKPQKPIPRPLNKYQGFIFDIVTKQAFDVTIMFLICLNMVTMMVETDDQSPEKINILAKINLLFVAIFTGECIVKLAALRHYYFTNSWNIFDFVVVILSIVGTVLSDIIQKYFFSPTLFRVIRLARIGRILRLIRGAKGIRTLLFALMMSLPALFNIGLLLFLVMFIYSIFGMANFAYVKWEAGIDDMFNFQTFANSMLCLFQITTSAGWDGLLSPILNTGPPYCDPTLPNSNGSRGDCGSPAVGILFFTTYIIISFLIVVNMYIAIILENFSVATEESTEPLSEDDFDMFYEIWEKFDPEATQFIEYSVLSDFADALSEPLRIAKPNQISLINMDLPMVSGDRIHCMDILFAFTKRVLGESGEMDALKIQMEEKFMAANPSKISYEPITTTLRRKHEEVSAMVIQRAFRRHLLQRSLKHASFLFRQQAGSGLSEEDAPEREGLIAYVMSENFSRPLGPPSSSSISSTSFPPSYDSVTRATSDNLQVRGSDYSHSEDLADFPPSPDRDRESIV

Compound | inhibition at 10 µM (compound at 10 μM) [%] | inhibition at 10 µM [%]
COc1cc(OC)c(C2C(C(=O)OCc3ccccc3)=C(C)Nc3nnnn32)c(OC)c1 (centres unmarked) [PT-343, benzyl 5-methyl-7-(2,4,6-trimethoxyphenyl)-4,7-dihydrotetrazolo[1,5-a]pyrimidine-6-carboxylate] | 34.4 | 
CC1=C(C(=O)OCc2ccccc2)C(c2ccc(SC(F)(F)F)cc2)n2nnnc2N1 (centres unmarked) [PT-359, benzyl 5-methyl-7-(4-(trifluoromethylthio)phenyl)-4,7-dihydrotetrazolo[1,5-a]pyrimidine-6-carboxylate] | 21.3 | 
COC(=O)c1ccc(C2C(C(=O)OCc3ccccc3)=C(C)Nc3nnnn32)c([N+](=O)[O-])c1 (centres unmarked) [PT-411, benzyl 7-(4-(methoxycarbonyl)-2-nitrophenyl)-5-methyl-4,7-dihydrotetrazolo[1,5-a]pyrimidine-6-carboxylate] | 11.4 | 
CC1=C(C(=O)OC(C)C)C(c2cccc3ccccc23)C2=C(CCCC2=O)N1 (centres unmarked) [PT-158, isopropyl 2-methyl-4-(naphthalen-1-yl)-5-oxo-1,4,5,6,7,8-hexahydroquinoline-3-carboxylate] | 38.7 | 
CC1=C(C(=O)OCc2ccccc2)C(c2ccccc2-c2ccc(S(C)(=O)=O)cc2)n2nnnc2N1 (centres unmarked) [PT-354, benzyl 5-methyl-7-(4′-(methylsulfonyl)biphenyl-2-yl)-4,7-dihydrotetrazolo[1,5-a]pyrimidine-6-carboxylate] | 64.7 | 
Cc1ccc(-c2n[nH]c3c2C(c2cccc4ccccc24)C2=C(COC2=O)N3)cc1 (centres unmarked) [PT-078] |  | 46.3
CC1=C(C(=O)OCc2ccccc2)C(c2ccccc2F)n2nnnc2N1 (centres unmarked) [PT-391, benzyl 7-(2-fluorophenyl)-5-methyl-4,7-dihydrotetrazolo[1,5-a]pyrimidine-6-carboxylate] | 32.4 | 
CC1=C(C(=O)OC(C)C)C(c2cc(-c3ccccc3)cs2)C2=C(CC(C)(C)CC2=O)N1 (centres unmarked) [PT-159, isopropyl 2,7,7-trimethyl-5-oxo-4-(4-phenylthiophen-2-yl)-1,4,5,6,7,8-hexahydroquinoline-3-carboxylate] | 46.3 | 
CCOC(=O)C1=C(C)Nc2nnnn2C1c1ccccc1Oc1ccc(C(=O)O)cc1 (centres unmarked) [PT-291, 4-(2-(6-(ethoxycarbonyl)-5-methyl-4,7-dihydrotetrazolo[1,5-a]pyrimidin-7-yl)phenoxy)benzoic acid] | 15.2 | 
CC1=C(C(=O)OCc2ccc(Cn3cccn3)cc2)C(c2ccc(N(C)C)c3ccccc23)n2nnnc2N1 (centres unmarked) [PT-283, 4-((1H-pyrazol-1-yl)methyl)benzyl 7-(4-(dimethylamino)naphthalen-1-yl)-5-methyl-4,7-dihydrotetrazolo[1,5-a]pyrimidine-6-carboxylate] | 11.4 | 
CC1=C(C(=O)OCc2ccccc2)C(c2cccc3ccccc23)n2nnnc2N1CC#N (centres unmarked) [PT-337, benzyl 4-(cyanomethyl)-5-methyl-7-(naphthalen-1-yl)-4,7-dihydrotetrazolo[1,5-a]pyrimidine-6-carboxylate] | 30.2 | 
CCOC(=O)C1=C(CC)Nc2nnnn2C1c1ccc2ccccc2c1 (centres unmarked) [PT-011, ethyl 5-ethyl-7-(naphthalen-2-yl)-4,7-dihydrotetrazolo[1,5-a]pyrimidine-6-carboxylate] | 37.7 | 
CCOC(=O)C1=C(C)N(CC#N)c2nnnn2C1c1cccc2ccccc12 (centres unmarked) [PT-456, ethyl 4-(cyanomethyl)-5-methyl-7-(naphthalen-1-yl)-4,7-dihydrotetrazolo[1,5-a]pyrimidine-6-carboxylate] | 2.7 | 
COC(=O)C1=C(C)Nc2nnnn2C1c1c(-c2ccc(C(=O)O)cc2)sc2ccccc12 (centres unmarked) [PT-296, 4-(3-(6-(methoxycarbonyl)-5-methyl-4,7-dihydrotetrazolo[1,5-a]pyrimidin-7-yl)benzo[b]thiophen-2-yl)benzoic acid] | 13.3 | 
CCCC1=C(C(=O)OCC)C(c2ccsc2)C2=C(CC(C)(C)CC2=O)N1 (centres unmarked) [PT-151, ethyl 7,7-dimethyl-5-oxo-2-propyl-4-(thiophen-3-yl)-1,4,5,6,7,8-hexahydroquinoline-3-carboxylate] | 35 | 
CCOC(=O)C1=C(C)Nc2nnnn2C1c1sccc1Br (centres unmarked) [PT-498, ethyl 7-(3-bromothiophen-2-yl)-5-methyl-4,7-dihydrotetrazolo[1,5-a]pyrimidine-6-carboxylate] | 25.2 | 
CCOC(=O)C1=C(C)NC(C)=C(C(=O)OCC)C1c1ccc([N+](=O)[O-])cc1OC [PT-433, diethyl 4-(2-methoxy-4-nitrophenyl)-2,6-dimethyl-1,4-dihydropyridine-3,5-dicarboxylate] | 30.3 | 
CCOC(=O)C1=C(C)NC2=C(C(=O)CCC2)C1c1cccnc1Cl (centres unmarked) [PT-189, ethyl 4-(2-chloropyridin-3-yl)-2-methyl-5-oxo-1,4,5,6,7,8-hexahydroquinoline-3-carboxylate] | 0.5 | 
CCOC(=O)C1=C(C)Nc2nnnn2C1c1ccc(C2C(C(=O)OCC)=C(C)Nc3nnnn32)cc1 (centres unmarked) [PT-201, diethyl 7,7′-(1,4-phenylene)bis(5-methyl-4,7-dihydrotetrazolo[1,5-a]pyrimidine-6-carboxylate)] | 7.8 | 

Compound | inhibition at 10 µM (compound at 10 μM) [%] | inhibition at 10 µM [%]
CC1=C(C(=O)OCc2ccccc2)C(c2ccccc2-c2ccccc2C#N)n2nnnc2N1 (centres unmarked) [PT-390, benzyl 7-(2′-cyanobiphenyl-2-yl)-5-methyl-4,7-dihydrotetrazolo[1,5-a]pyrimidine-6-carboxylate] | 20 | 
CC1=C(C(=O)OC(C)C)C(c2cnn(-c3ccccc3C)c2C)C2=C(CC(C)(C)CC2=O)N1 (centres unmarked) [PT-161, isopropyl 2,7,7-trimethyl-4-(5-methyl-1-o-tolyl-1H-pyrazol-4-yl)-5-oxo-1,4,5,6,7,8-hexahydroquinoline-3-carboxylate] | 6.8 | 
CCOC(=O)C1=C(C)Nc2nnnn2C1c1ccc(N(C)C)cc1[N+](=O)[O-] (centres unmarked) [PT-501, ethyl 7-(4-(dimethylamino)-2-nitrophenyl)-5-methyl-4,7-dihydrotetrazolo[1,5-a]pyrimidine-6-carboxylate] | 2.5 | 
COC(=O)C1=C(C)Nc2ccnn2C1c1nc(C)cs1 (centres unmarked) [PT-511, methyl 5-methyl-7-(4-methylthiazol-2-yl)-4,7-dihydropyrazolo[1,5-a]pyrimidine-6-carboxylate] | 19.5 | 
CC1=C(C(=O)OCc2ccccc2)C(c2ccccc2N2CCOCC2)n2nnnc2N1 (centres unmarked) [PT-345, benzyl 5-methyl-7-(2-morpholinophenyl)-4,7-dihydrotetrazolo[1,5-a]pyrimidine-6-carboxylate] | 36.7 | 
CC1=C(C(=O)OCc2ccccc2)C(c2ccc3ccccc3n2)n2nnnc2N1 (centres unmarked) [PT-196, benzyl 5-methyl-7-(quinolin-2-yl)-4,7-dihydrotetrazolo[1,5-a]pyrimidine-6-carboxylate] | 32.5 | 
COc1ccc(COC(=O)C2=C(C)NC(C)=C(C(=O)OCc3ccc(OC)c(OC)c3)C2c2ccc3ccccc3c2)cc1OC [PT-130, bis(3,4-dimethoxybenzyl) 2,6-dimethyl-4-(naphthalen-2-yl)-1,4-dihydropyridine-3,5-dicarboxylate] | 15.7 | 
CC1=C(C(=O)OCc2ccccc2)[C@@H](c2ccccc2-c2ccc(C#N)cc2)n2nnnc2N1 [PT-243, (R)-benzyl 7-(4′-cyanobiphenyl-2-yl)-5-methyl-4,7-dihydrotetrazolo[1,5-a]pyrimidine-6-carboxylate] | 91.5 | 
COc1ccc(-c2ccccc2C2C(C(=O)OCc3ccccc3)=C(C)Nc3nnnn32)cc1 (centres unmarked) [PT-420, benzyl 7-(4′-methoxybiphenyl-2-yl)-5-methyl-4,7-dihydrotetrazolo[1,5-a]pyrimidine-6-carboxylate] | 75.3 | 
CC1=C(C(=O)OCc2ccccc2)C(c2ccsc2)n2nnnc2N1 (centres unmarked) [PT-041, benzyl 5-methyl-7-(thiophen-3-yl)-4,7-dihydrotetrazolo[1,5-a]pyrimidine-6-carboxylate] | 41.4 | 
CCOC(=O)C1=C(C)NC2=C(C(=O)CCC2)C1c1ccccc1-c1ccc(C(N)=O)cc1 (centres unmarked) [PT-455, ethyl 4-(4′-carbamoylbiphenyl-2-yl)-2-methyl-5-oxo-1,4,5,6,7,8-hexahydroquinoline-3-carboxylate] | 9 | 
CCOC(=O)C1=C(C)Nc2nnnn2C1c1ccccc1Oc1ccc(-c2nnn[nH]2)cc1 (centres unmarked) [PT-481, ethyl 7-(2-(4-(1H-tetrazol-5-yl)phenoxy)phenyl)-5-methyl-4,7-dihydrotetrazolo[1,5-a]pyrimidine-6-carboxylate] | 18 | 
CCCC1=C(C(=O)OCC)C(c2ccsc2)C2=C(CC(C(C)C)CC2=O)N1 (centres unmarked) [PT-152, ethyl 7-isopropyl-5-oxo-2-propyl-4-(thiophen-3-yl)-1,4,5,6,7,8-hexahydroquinoline-3-carboxylate] | 41.2 | 
CCOC(=O)C1=C(C(F)(F)F)Nc2nnnn2C1c1cccc2ccccc12 (centres unmarked) [PT-009, ethyl 7-(naphthalen-1-yl)-5-(trifluoromethyl)-4,7-dihydrotetrazolo[1,5-a]pyrimidine-6-carboxylate] | 8.2 | 
CC1=C(C(=O)OCc2ccccc2)[C@@H](c2ccccc2-c2ccc(C(F)(F)F)cc2)n2nnnc2N1 [PT-236, (R)-benzyl 5-methyl-7-(4′-(trifluoromethyl)biphenyl-2-yl)-4,7-dihydrotetrazolo[1,5-a]pyrimidine-6-carboxylate] | 68 | 
COc1ccc(C2C(C(=O)OCc3ccccc3)=C(C)Nc3c(C(=O)O)cnn32)c2ccccc12 (centres unmarked) [PT-312, 6-(benzyloxycarbonyl)-7-(4-methoxynaphthalen-1-yl)-5-methyl-4,7-dihydropyrazolo[1,5-a]pyrimidine-3-carboxylic acid] | 5.2 | 
CCOC(=O)C1=C(C(F)(F)F)Nc2nnnn2C1c1cccs1 (centres unmarked) [PT-016, ethyl 7-(thiophen-2-yl)-5-(trifluoromethyl)-4,7-dihydrotetrazolo[1,5-a]pyrimidine-6-carboxylate] | 30.7 | 
CC1=C(C(=O)OCc2ccccc2)C(c2ccc(C(=O)O)cc2)n2nnnc2N1 (centres unmarked) [PT-299, 4-(6-(benzyloxycarbonyl)-5-methyl-4,7-dihydrotetrazolo[1,5-a]pyrimidin-7-yl)benzoic acid] | 6.7 | 
COC(=O)C1=C(C)Nc2[nH]nc(C)c2C1c1nc(C)cs1 (centres unmarked) [PT-509, methyl 3,6-dimethyl-4-(4-methylthiazol-2-yl)-4,7-dihydro-1H-pyrazolo[3,4-b]pyridine-5-carboxylate] | 6.4 | 
